Results on one compound are retold here after patent US11442059B2, “Method for treating a chronic itch condition by administering small molecule MrgprX4 antagonists” (The Johns Hopkins University, priority 2017, dated 2022).

The subject of data set [1] is 129S1/SvImJ mice. As to the kind of experiment: SJS/TEN mouse model (daily oral gavage of causative drug). As to conditions: for TUNEL-positive dead epithelial cells in paw: LTG oral daily. The class given is in vivo. How it is done:
Eight-to-ten week old male mice were orally gavaged with either causative drugs (LTG, allopurinol, oxcarbazepine) suspended in saline or saline once daily. The dosage was based on milligrams per kilogram of animal's body weight as indicated (for example, LTG 50 mg kg^−1 body weight). Skin, eyes, and mucosa, survival, body weight, physical and gross appearances (particularly on the eyes, mucosa and skins) were monitored every day.
The animals were deeply anesthetized with pentobarbital and transcardially perfused with 20 ml 0.1 M cold PBS (pH 7.4) followed with 25 ml of cold 4% paraformaldehyde (PFA). Paw skin, eyelid, spleen, lymph nodes were dissected out. postfixed in 4% PFA for more than two hours, and cryoprotected in a 20% followed by 30% sucrose solution for 24 hours each at 4° C. Tissue samples were embedded in the optimal cutting temperature (OCT) and frozen before being serially cut into 20 μm sections and placed onto slides. Hematoxylin and eosin (H&E) staining was performed using standard procedures according to the manufacturer's instruction VITROVIEW™ H&E Stain Kit). To quantify amount of apoptotic cells, terminal deoxynucleotidyl transferase dUTP nick end labeling (TUNEL) assay, a method for detecting DNA fragmentation that results from apoptotic cells by labeling the terminal end of nucleic acids, was performed by following the protocol of Apo-BrdU DNA Fragmentation Assay Kit (Biovision). To estimate the total cell number in tissue, all nuclei were stained with propidium iodide. Digital photographs were captured under confocal fluorescent microscopy at x200 magnification (Zeiss LSM 700). The number of TUNEL-positive nuclei were counted and reported as a percentage over the number of total nuclei observed in the skin's epidermis layer.

The subject of data set [2] is CD11c+MHC-IIhigh cells. Nature of the data set: Calcium imaging of sorted mouse splenocytes. The class given is cell-based. To be noted: WT CD11c+MHC-IIhigh splenocytes. On the procedure: In initial experiments, HEK293 cells were plated on 100 μg/ml poly-D-lysine coated glass cover slips, and transiently transfected with vector containing Mrgprs gene, after 24-48 hours of culture, cells were loaded with Fura 2-acetomethoxy ester calcium indicator (0.5 μM, Molecular Probes) along with pluronic F-127 dispersing agent (0.1%, Molecular Probes) for 30 minutes in the dark at 37° C., then washed with calcium imaging buffer (CIB; NaCl 125 mM, KCl 3 mM, CaCl2 2.5 mM, MgCl2 0.6 mM, HEPES 10 mM, glucose 20 mM, NaHCO3 1.2 mM, sucrose 20 mM, brought to pH 7.4 with NaOH). Drugs were added to Fura 2-loaded cells and intracellular free calcium was measured using 340 nm and 380 nm excitation wavelengths with emission measured at 520 nm with a microscope based imaging system (Nikon Eclipse TE200). Changes in emission fluorescence ratios at 340/380 nm excitation were continuously monitored at 1 second intervals. Later, experiments were performed using Mrgpra1-GFP, Mrgprc11-GFP and MRGPRX4-GFP stable cell lines to confirm the findings obtained from the transiently expressing cells.
To sort different cell types of splenocytes based on CD11c and MHC-II expression, single cell suspension of mouse splenocytes was prepared as above described. Then. […]

In turn, `Nc1nnc(-c2cccc(Cl)c2Cl)c(N)n1` [LTG, Lamotrigine] displayed a mortality rate in data set [1] (LTG 50 mg kg−1 oral daily, by day 14, WT 129S1/SvImJ mice) of 60%. Further, the “TUNEL-positive dead epithelial cells in paw” value worked out at 45.99±1.84% in data set [1] (day 9, HET mice); 6.10±1.63% in data set [1] (day 9, KO mice); 48.74±5.94% in data set [1] (day 9, WT mice). Further, the survival entry in data set [1] (day 14 of LTG treatment, KO group) was “no mouse died”. Also, in data set [1] (day 14 of LTG treatment, WT and HET groups), the mice survived is on record as 30%. The “cells responding (Ca2+ imaging)” value in data set [2] is reported as “approximately 5%”.
